# Assay results from BigSolDB 2.1.
smiles,measurement,setting,value
CC(=O)N1CCN(c2ccc(OC[C@@H]3CO[C@@](Cn4ccnc4)(c4ccc(Cl)cc4Cl)O3)cc2)CC1 (racemic),solubility (mole fraction),"in n-propanol, 293.2 K",0.0056
same,solubility (mole fraction),"in n-propanol, 298.2 K",0.00703
same,solubility (mole fraction),"in n-propanol, 303.2 K",0.00948
same,solubility (mole fraction),"in n-propanol, 308.2 K",0.0128
same,solubility (mole fraction),"in n-propanol, 313.2 K",0.0175
same,solubility (mole fraction),"in water, 293.2 K",3.8e-07
same,solubility (mole fraction),"in water, 298.2 K",4.25e-07
same,solubility (mole fraction),"in water, 303.2 K",4.46e-07
same,solubility (mole fraction),"in water, 308.2 K",4.8e-07
same,solubility (mole fraction),"in water, 313.2 K",5.11e-07
